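Interpolation was linear, between the two tested concentrations surrounding the appropriate level; five concentrations were tested over 48 hours in 96-well plates. Here, GI50 denotes the concentration required for 50% inhibition of growth.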 Active and inactive are the calls of the source. Cut-off read from the data, not from the text of the source: active = GI50 up to about 1.1 µM and inactive = higher.
Tests used:
Assay in all cases: DTP human tumour cell line panel, 48 h
[1] = test system: U-251
[2] = test system: OVCAR-8
[3] = test system: SF-295
[4] = test system: CCRF-CEM
[5] = test system: SK-MEL-28
[6] = test system: TK-10
[7] = test system: UACC-257
[8] = test system: SK-OV-3
[9] = test system: RPMI-8226
[10] = test system: K562
[11] = test system: IGROV-1
[12] = test system: SR
[13] = test system: OVCAR-4
[14] = test system: RXF 393
[15] = test system: HCT-116
[16] = test system: EKVX
[17] = test system: HCT-15
[18] = test system: HOP-62
[19] = test system: M14
[20] = test system: HCC 2998

SMILES | GI50 [1] | GI50 [2] | GI50 [3] | GI50 [4] | GI50 [5] | GI50 [6] | GI50 [7] | GI50 [8] | GI50 [9] | GI50 [10] | GI50 [11] | GI50 [12] | GI50 [13] | GI50 [14] | GI50 [15] | GI50 [16] | GI50 [17] [µM] | GI50 [18] | GI50 [19] | GI50 [20]
O=C(O)CC1OCC=C2CN3CCC45c6ccccc6NC4C1C2CC35 (stereo not given) | > 100 µM (inactive) | > 100 µM (inactive) | > 100 µM (inactive) | > 100 µM (inactive) | > 100 µM (inactive) | > 100 µM (inactive) | > 100 µM (inactive) | > 100 µM (inactive) | > 100 µM (inactive) | > 100 µM (inactive) | > 100 µM (inactive) | > 100 µM (inactive) | > 100 µM (inactive) | > 100 µM (inactive) | > 100 µM (inactive) | > 100 µM (inactive) | > 100 | > 100 µM (inactive) | > 100 µM (inactive) | 
c1nc(NCCc2c[nH]cn2)c2nc[nH]c2n1 | > 100 µM (inactive) | > 100 µM (inactive) | > 100 µM (inactive) | > 100 µM (inactive) | > 100 µM (inactive) | > 100 µM (inactive) | > 100 µM (inactive) | > 100 µM (inactive) | > 100 µM (inactive) | > 100 µM (inactive) | > 100 µM (inactive) | > 100 µM (inactive) | > 100 µM (inactive) | > 100 µM (inactive) | > 100 µM (inactive) | 46.2 µM (inactive) | > 100 | > 100 µM (inactive) | > 100 µM (inactive) | 
C[C@]12CCCC(=O)C1C[C@H](C(=O)O)CC2 (stereo not given in full) | > 100 µM (inactive) | > 100 µM (inactive) | > 100 µM (inactive) | > 100 µM (inactive) | > 100 µM (inactive) | > 100 µM (inactive) | > 100 µM (inactive) | > 100 µM (inactive) | > 100 µM (inactive) | > 100 µM (inactive) | > 100 µM (inactive) | > 100 µM (inactive) | > 100 µM (inactive) |  | > 100 µM (inactive) |  | > 100 | > 100 µM (inactive) | > 100 µM (inactive) | > 100 µM (inactive)
COC(=O)c1nn2ccc3ccccc3c2c1C(=O)OC | > 100 µM (inactive) | > 100 µM (inactive) | > 100 µM (inactive) |  | > 100 µM (inactive) | > 100 µM (inactive) | 60.7 µM (inactive) | > 100 µM (inactive) |  | 58.7 µM (inactive) | 88.9 µM (inactive) | 41.1 µM (inactive) | > 100 µM (inactive) | 59.2 µM (inactive) | 65.9 µM (inactive) | 2.37 µM (inactive) | 54.3 | 50.8 µM (inactive) | 33 µM (inactive) | 
C=C/C(C)=C\CC1[C@](C)(O)CC[C@H]2C(C)(C)C(O)CC[C@]12C (stereo not given in full) | > 100 µM (inactive) | > 100 µM (inactive) | > 100 µM (inactive) | 27.5 µM (inactive) | > 100 µM (inactive) | > 100 µM (inactive) | > 100 µM (inactive) |  | 42.6 µM (inactive) | 34.4 µM (inactive) | > 100 µM (inactive) | 40.8 µM (inactive) | > 100 µM (inactive) | 95.1 µM (inactive) | 54.8 µM (inactive) | > 100 µM (inactive) | > 100 |  | > 100 µM (inactive) | 
CCCCNC(=S)Nc1nc(C(=O)NNC(=O)c2ccccc2)cs1 | 11.8 µM (inactive) | 17.4 µM (inactive) | 15.2 µM (inactive) | 27.9 µM (inactive) |  | 19.6 µM (inactive) | 17.9 µM (inactive) | 17.5 µM (inactive) | 26.1 µM (inactive) | 44.5 µM (inactive) | 13.8 µM (inactive) | 29.6 µM (inactive) | 9.29 µM (inactive) |  | 13.1 µM (inactive) | 12.8 µM (inactive) | 6 | 18 µM (inactive) | 14.9 µM (inactive) | 13.7 µM (inactive)
C=CC(C)(C)n1cc(C2=C3OC(=O)C(c4cn(C(C)(C)C=C)c5ccccc45)=C3OC2=O)c2ccccc21 | > 100 µM (inactive) | > 100 µM (inactive) | > 100 µM (inactive) | > 100 µM (inactive) | > 100 µM (inactive) | > 100 µM (inactive) | > 100 µM (inactive) |  | > 100 µM (inactive) | > 100 µM (inactive) | > 100 µM (inactive) | > 100 µM (inactive) | > 100 µM (inactive) | > 100 µM (inactive) | > 100 µM (inactive) | > 100 µM (inactive) | > 100 | > 100 µM (inactive) | > 100 µM (inactive) | > 100 µM (inactive)
N#C/C(c1nc2ccccc2[nH]1)=c1\s/c(=C/c2ccccc2)c(=O)n1-c1ccccc1 | > 100 µM (inactive) | > 100 µM (inactive) |  | 98.9 µM (inactive) | > 100 µM (inactive) | > 100 µM (inactive) | > 100 µM (inactive) | > 100 µM (inactive) | > 100 µM (inactive) | > 100 µM (inactive) | 2.9 µM (inactive) | > 100 µM (inactive) | > 100 µM (inactive) |  | > 100 µM (inactive) | > 100 µM (inactive) | > 100 | > 100 µM (inactive) | > 100 µM (inactive) | > 100 µM (inactive)

— ChEMBL document CHEMBL1201862, “PubChem BioAssay data set” (2004)
